{
  "source": "patent US11066655B2",
  "about": "“RNA polymerase, methods of purification and methods of use” (President and Fellows of Harvard College, priority 2013, dated 2021)",
  "molecules": {"B1": {"name": "Syn5 RNAP: single subunit DNA-dependent RNA polymerase from marine cyanophage Syn5, amino acid sequence SEQ ID NO:23 (protein)", "chain": "MSFDLIARQLQRETEAAELARKRLQDARREANERSYASSNIESRKAIATFLDPIAQRIGERLFTLRRGTGAVDAAEVYKHLKNADHHHLALITMKTALDVLGKDPEPQIQQLTTAIGRNIQLELRLTYYAEENPELYKQASRFFHAGTGTRQKATVIKLKFNREGIEWDQWSRVTCHKVGQWLMLAMADVTGWIERATDRTSGGRKTKTRICYSREFLQHRDTILAAAEQLAFCQWPMLCPPIEWSNDHNGGYLSEQIRRVNPLIRKTGPLGTRKQGDIPLAMLNNLQGQAYKVNPEVLDIANHCYESNVTVGKFIRHAPLPVPPSPGEDCTEDQLTAYKRARREAEDFNAQISQKNWRTTEVMYVARKYADEASFWMPASFDYRGRVYFLNTALNPQGTDFDKALLYFAEEGPVNEWWLSFHVATTYGLDKETMVNRVQWARDNHELIDRIASDPVRHTEWHDADEPWCFLAACLEYKACVIDGTKQTSGLPIGIDATCSGLQHLAAMTRCGRTAALVNVTPTDKPADAYKTVAQASLKHLPKEQHEWITRKVTKRPVMCTPYGVTMSSARGYIRDQLVKDGHKEDLRSPGVLNGIVKAIFNEAIPEVIPGPVQVMAWLKRSAGQIIDRGDSTITWTTPSGFEVVQDLKKSKTYEVKTRIMGGARIKLQVGDGFTDEPDRDHHKSALAPNVVHSNDASLLHLTFAFWDKPFTVIHDCVLGRSCDMDQMGSDIRLHFAEMYKADVMQDWADQVGVELPVDLIKNTLDIDSVNQSLYFFS", "modifications": "Amino acid sequence of a cyanophage Syn5 RNAP"}},
  "key": {"[1]": {"test_system": "E. coli total aminoacyl-tRNA synthetases", "assay": "tRNA aminoacylation assay of RNAP products", "type": "biochemical", "settings": "for desired (functional) tRNA in total RNA products: without gel extraction, maximum charging at 30 min", "description": "(§1) FIGS. 11A-11B depict synthesis of tRNA^Arg by Syn5 and T7 RNA polymerase. A) Synthesis of tRNA^Arg at analytical scale by various amounts of Syn5 and T7 RNA polymerase. Using radioactively labeled CTP, the tRNA^Arg and N+1 product (as marked) produced by 22, 67, 200 nM Syn5 and T7 RNA polymerase at 37° C. are shown. […] The DNA encoding E. coli tRNA^ArgACG is directly downstream of a Syn5 or T7 promoter for the cognate RNA polymerase to synthesize run-off tRNA transcript. B) Synthesis of tRNA^Arg at preparative scale by Syn5 and T7 RNA polymerase. The sequencing gel is showing the analysis of the total RNA products by Syn5 and T7 RNAP at 37° C. in a 200 µl reaction. RNAs were purified by either ZYMO RNA clean kit or phenol/chloroform extraction followed by ethanol precipitation (P/C/E), as noted on top of the gel. The native tRNA^Arg (with modifications) overexpressed and purified from E. coli cells was used as a size marker. The two major bands in the total RNAs are tRNA^Arg and N+1 product as marked.\ntRNA Aminoacylation Assay tRNA aminoacylation assay was performed as described previously (Tan et al.). A reaction containing 100 mM Tris-HCl, pH 7.5, 30 mM KCl, 12 mM MgCl2, 0.5 mM DTT, 4 mM ATP, 0.2 […]RNA (purified native E. coli tRNA^Arg (Zhu et al. (2012)), or purified tRNA^Arg transcripts from Syn5 or T7 RNAP reaction using RNA Clean & Concentrator™-5 kit), 15 µM [^3H] arginine (15 Ci/mmol), and 4 µM E. coli total aminoacyl-tRNA synthetases was incubated at 37° C. for the indicated time period. 5 µl reaction mixtures were spotted onto Whatman DE(81) filters and reactions stopped by 10% TCA solution containing 0.5 mM arginine. The filters were washed twice with 10% TCA and once with ethanol, and then dried. The amount of amino acid charged to tRNA was determined by measuring radioactivity remained on the filters."}, "[2]": {"test_system": "DNA templates S5P-tDNAR or T7P-tDNAR", "assay": "Run-off synthesis of small RNA (tRNA^Arg), analytical scale, denaturing gel", "type": "biochemical", "settings": "for N+1 product in tRNA^Arg synthesis: 37° C., 22, 67, 200 nM enzyme; for N+1 product in run-off products: all temperatures (16° C., RT, 37° C.) and KCl concentrations examined", "excerpt": "FIGS. 10A-10B depict a comparison of T7 and Syn5 RNA polymerase in run-off synthesis of small RNA. A) Effect of temperature and salt concentration on the RNA synthesis by T7 and Syn5 RNA polymerase. B) Similar as A) except that His-tagged T7 RNA polymerase was used.\nas §1\nFIGS. 12A-12B depict synthesis of long run-off product and the incorporation of modified nucleotides by Syn5 and T7 RNA polymerase. A) On the linearized plasmid template as shown in the schematic, the production of RNA by either RNA polymerase (10 nM) was analyzed on agarose gel as lane 2. […] Lane 3 and 4 show the same RNA synthesis when CTP was replaced by 5mCTP and UTP by Ps-UTP, respectively. B) Incorporation of UTP or Ps-UTP into small RNA by 22, 67, and 200 nM Syn5 and T7 RNA polymerase as analyzed by denaturing TBE polyacrylamide gel. Full-length run-off product and the N+1 product are shown.\nDNA templates for transcription assays were either plasmids or dsDNA fragments made of synthesized oligonucleotides. To test the processivity of Syn5 and T7 RNAP, a single Syn5 or T7 promoter plus 3 guanosine downstream of the promoter (Syn5 5′-ATTGGGCACCCGTAAGGG-3′ (SEQ ID NO:1) or T7 5′-[…]-3′) (SEQ ID NO:2) was inserted between the BamHI and XbaI sites of plasmid pUC19 to form pUC19-S5P or pUC19-T7P. The templates for run-off tRNA^Arg synthesis were formed by annealing of two complementary synthesized DNA oligos of which sequences are as following:\nFor the results shown in FIG. 10, reaction mixtures (10 μl) contained 40 mM Tris-HCl pH 8.0, 6 mM MgCl2, 2 mM spermidine, 10 mM DTT, 200 µm[…]P, GTP and UTP, 10 µM [[…]-^32P]CTP, 1.5 U/µl RNaseOUT™ recombinant ribonuclease inhibitor, 0.5 μM DNA templates S5P-tDNAR or T7P-tDNAR, 100 nM Syn5 or T7 RNAP, and various amount of KCl as noted in the figure. Reactions were carried out at various temperatures of 16° C., room temperature, or 37° C. for 30 min before adding of one unit of DNase I to each reaction mixture and an additional incubation of 15 min at 37° C. Reactions were then terminated by the addition of 4 µl of loading dye containing 95% formamide and 40 mM EDTA. Samples were then heated at 90° C. for 1 min and 4 µl sample each was loaded onto 15% TBE-Urea denaturing polyacrylamide gels. After electrophoresis, gels were dried and analyzed using a Fuji BAS 1000 Bioimaging Analyzer.\nFor the results shown in FIG. 11A, reaction mixtures (10 μl) containing 40 mM Tris-HCl pH 8.0, 6 mM MgCl2, 2 mM spermidine, 10 mM DTT, 200 µM[…]P, GTP and UTP, 10 µM [[…]-^32P]CTP, 1.5 U/µl RNaseOUT™ recombinant ribonuclease inhibitor, 0.5 μM DNA templates S5P-tDNAR or T7P-tDNAR, and various amount of Syn5 or T7 RNAP were incubated at 37° C. for 30 min before adding of one unit of DNase I to each reaction mixture and an additional incubation of 15 min at 37° C. Reactions were then terminated by the addition of 4 µl of loading dye containing 95% formamide and 40 mM EDTA. […]"}},
  "data": [
    {"molecule": "T7 RNAP: RNA polymerase encoded by bacteriophage T7, from New England Biolabs [reference compound]", "values": [
      {"measurement": "desired (functional) tRNA in total RNA products", "setting": "[1]", "result": 15, "unit": "%"},
      {"measurement": "run-off synthesis at high salt", "setting": "[2]; 160 mM KCl", "result": "little activity"},
      {"measurement": "N+1 product in tRNA^Arg synthesis", "setting": "[2]", "result": "more N+1 product than the desired product"},
      {"measurement": "N+1 product in run-off products", "setting": "[2]", "result": "abundant amounts of the N+1 product"},
      {"measurement": "products when UTP replaced by Ps-UTP", "setting": "[2]; small RNA, radioactively labeled CTP", "result": "produced predominantly N+1 products"}
    ]},
    {"molecule": "B1", "values": [
      {"measurement": "amino acid charging activity of products", "setting": "[1]; [3H] arginine, 37° C.", "result": "much higher than that obtained from the T7 RNAP reaction"},
      {"measurement": "desired (functional) tRNA in total RNA products", "setting": "[1]", "result": 40, "unit": "%"},
      {"measurement": "run-off synthesis at high salt", "setting": "[2]; 250 mM KCl", "result": "produces significant amounts of product"},
      {"measurement": "N+1 product in tRNA^Arg synthesis", "setting": "[2]", "result": "absence of N+1 product"},
      {"measurement": "N+1 product in run-off products", "setting": "[2]", "result": "did not contain detectable N+1 product band"}
    ]}
  ]
}
